# Where “and” joins values, the source holds several entries; their conditions need not be identical. Identical values can stand only once. Counter-ions that a name gives are not always drawn. Like-named read-outs stand apart in the source and are kept apart here.
# What was measured:
# NCI-28H cells = conditions: for % survival from untreated cells: cells + drug / Average reading: cells + drug / % survival cells after exposure to drug for 72 hrs (cells + drug only) / Average absorbance readings: cells + drug / Average absorbance reading: cells + drug: NCI-28H
# NCI-2052H cells = assay: Cytotoxicity assay (MTS, CellTiter 96 AQueous One, 490 nm), 72 hrs; type: cell-based; conditions: for Average reading: cells + drug: absorbance 490 nm
# Description: Read absorbance (MTS assay) and calculate cells survival rate. Compare survival rate
# 1,500,000 cells/440,000=3.4 ml of cells/media mix need to take from flask and transfer to 26.6 ml media. In 50 ml Falcon tube, combine 26.6 ml fresh medium and 3.4 ml cells. Gently mix.
# 1. Centrifuge tubes at 3200 rpm for 3 min. Take out supernatant.
# 6. Check the plates and start incubation for 72 hrs at 37° C./5% CO2.
# 5. Incubate plate 1 hr at 37° C., 5% CO2.
# Compare survival rate of cells.
# 1. […] Protocol how to do that see in previous cytotoxicity experiment.
# 1. Incubate plate for 72 hrs at 37° C., 5% CO2.
# 6. Incubate plate 1 hr at 37° C., 5% CO2.
# [1] = Talc bound to hot/cold Avidin, 48 hrs wash in PBS containing 10% FBS, absorbance 450 nm; type: physicochemical; conditions: 48 hrs in PBS containing 10% FBS
# Description: Purpose: To check how strong the conjugate of hot/cold Avidin to Talc is. […] Absorbance will be checked twice—once before washing with PBS containing 10% FBS and after 48 hours, washing will be done.
# 14. […] Two identical microplates need to be set up, labeling them as: plate #1 and plate #2. Design of the plate:
# 3. Wash both plates 3× with 300 μL PBS.
# 5. […] Mix constantly, cover plate with Aluminum foil.
# 6. Add 100 μL of TMB to samples in plate #1.
# 9. Read absorbance at 450 nm using the plate reader.
# 3. Collect 100 μL supernatant from samples except native controls and load on same plate.
# 4. Wash plate except supernatant samples 3× with 300 μL PBS.
# 6. Add 100 μL of TMB to all samples in plate #2.
molecule,measurement,setting,value
N.N.O=C([O-])C1(C(=O)[O-])CCC1.[Pt+2] [Carboplatin],% survival from untreated cells: cells + drug,NCI-28H cells; carboplatin 0.006 μM,90.84% and 94.28%
same,Average reading: cells + drug,"NCI-28H cells; carboplatin 0.006 μM, absorbance 490 nm",1.504
same,% survival from untreated cells: cells + drug,NCI-28H cells; carboplatin 0.8 μM,85.98% and 87.53%
same,Average reading: cells + drug,"NCI-28H cells; carboplatin 0.8 μM, absorbance 490 nm",1.4238
same,% survival from untreated cells: cells + drug,NCI-28H cells; carboplatin 4 μM,96.93% and 93.62%
same,Average reading: cells + drug,"NCI-28H cells; carboplatin 4 μM, absorbance 490 nm",1.605
same,% survival from untreated cells: cells + drug,NCI-28H cells; carboplatin 20 μM,104.81% and 99.20%
same,Average reading: cells + drug,"NCI-28H cells; carboplatin 20 μM, absorbance 490 nm",1.7355
same,% survival from untreated cells: cells + drug,NCI-28H cells; carboplatin 100 μM,83.82% and 79.53%
same,Average reading: cells + drug,"NCI-28H cells; carboplatin 100 μM, absorbance 490 nm",1.388
same,% survival from untreated cells: cells + drug,NCI-28H cells; carboplatin 500 μM,37.38% and 35.14%
same,Average reading: cells + drug,"NCI-28H cells; carboplatin 500 μM, absorbance 490 nm",0.6189
"CO[C@@]12[C@H](COC(N)=O)C3=C(C(=O)C(C)=C(N)C3=O)N1C[C@@H]1N[C@@H]12 [mitomycin, Mitomycin]",Average reading: cells + drug,NCI-2052H cells; mitomycin 0.013 μM,1.284
same,Average reading: cells + drug,NCI-2052H cells; mitomycin 0.064 μM,1.199
same,Average reading: cells + drug,NCI-2052H cells; mitomycin 8 μM,0.4142
same,Average reading: cells + drug,NCI-2052H cells; mitomycin 40 μM,0.2305
same,Average reading: cells + drug,NCI-2052H cells; mitomycin 200 μM,0.2098
same,Average reading: cells + drug,NCI-2052H cells; mitomycin .0026 μM,1.424
same,% survival cells after exposure to drug for 72 hrs (cells + drug only),"NCI-28H cells; mitomycin 0.0026 μM, 72 hrs",106.12%
same,Average absorbance readings: cells + drug,NCI-28H cells; mitomycin 0.0026 μM,2.032
same,% survival cells after exposure to drug for 72 hrs (cells + drug only),"NCI-28H cells; mitomycin 0.013 μM, 72 hrs",102.65%
same,Average absorbance readings: cells + drug,NCI-28H cells; mitomycin 0.013 μM,1.965
same,% survival cells after exposure to drug for 72 hrs (cells + drug only),"NCI-28H cells; mitomycin 0.064 μM, 72 hrs",98.03%
same,Average absorbance readings: cells + drug,NCI-28H cells; mitomycin 0.064 μM,1.8766
same,% survival cells after exposure to drug for 72 hrs (cells + drug only),"NCI-28H cells; mitomycin 8 μM, 72 hrs",18.03%
same,Average absorbance readings: cells + drug,NCI-28H cells; mitomycin 8 μM,0.3451
same,% survival cells after exposure to drug for 72 hrs (cells + drug only),"NCI-28H cells; mitomycin 40 μM, 72 hrs",27.16%
same,Average absorbance readings: cells + drug,NCI-28H cells; mitomycin 40 μM,0.52
same,% survival cells after exposure to drug for 72 hrs (cells + drug only),"NCI-28H cells; mitomycin 200 μM, 72 hrs",12.87%
same,Average absorbance readings: cells + drug,NCI-28H cells; mitomycin 200 μM,0.2464
"Avidin: Avidin from egg white (Sigma A9275), 66 kDa biotin-binding protein; unlabeled = cold Avidin",binding of Avidin to talc at 48 hours,[1],unchanged
"COc1cccc2c1C(=O)c1c(O)c3c(c(O)c1C2=O)C[C@@](O)(C(=O)CO)C[C@@H]3O[C@H]1C[C@H](N)[C@H](O)[C@H](C)O1 [DOX, Doxorubicin Hydrochloride]",% survival from untreated cells,NCI-2052H cells; doxorubicin 400 nM,57.76%
same,% survival from untreated cells,NCI-2052H cells; doxorubicin 2000 nM,25.59%
same,% survival from untreated cells,"NCI-2052H cells; doxorubicin 10,000 nM",18.91%
same,AVERAGE: cells + DOX (absorbance),"NCI-28H cells; 72 hrs, DOX 0.000064 μM",1.18
same,AVERAGE: cells + DOX (absorbance),"NCI-28H cells; 72 hrs, DOX 0.2 μM",0.89
same,AVERAGE: cells + DOX (absorbance),"NCI-28H cells; 72 hrs, DOX 1 μM",0.67
same,AVERAGE: cells + DOX (absorbance),"NCI-28H cells; 72 hrs, DOX 5 μM",0.63
same,% survival from untreated by DOX cells,"NCI-28H cells; 72 hrs, Dox 200 nM",65.0%
same,% survival NCI-28H cells after different treatment (compare to untreated cells),NCI-28H cells; cells + 125 nM DOX,70%
CC(=O)O[C@H]1C(=O)[C@@]2(C)[C@H]([C@H](OC(=O)c3ccccc3)[C@]3(O)C[C@H](OC(=O)[C@H](O)[C@@H](NC(=O)c4ccccc4)c4ccccc4)C(C)=C1C3(C)C)[C@]1(OC(C)=O)CO[C@@H]1C[C@@H]2O [Paclitaxel],Average reading: cells + drug,NCI-2052H cells; paclitaxel 0.256 nM,1.4273
same,Average reading: cells + drug,NCI-2052H cells; paclitaxel 6.4 nM,1.54
same,Average reading: cells + drug,NCI-2052H cells; paclitaxel 32 nM,0.5818
same,Average reading: cells + drug,NCI-2052H cells; paclitaxel 160 nM,0.4361
same,Average reading: cells + drug,NCI-2052H cells; paclitaxel 800 nM,0.4326
same,Average reading: cells + drug,NCI-2052H cells; paclitaxel 4000 nM,0.553
same,Average reading: cells + drug,"NCI-2052H cells; paclitaxel 20,000 nM",0.1647
same,Average readings: cells + drug,"NCI-28H cells; Paclitaxel 80 nM, absorbance 490 nm",1.10
"Nc1ccn([C@@H]2O[C@H](CO)[C@@H](O)C2(F)F)c(=O)n1 [gemcitabine, Gemcitabine]","cytotoxicity to NCI-28H cells, comparison",NCI-28H cells,clear cytotoxic effect
same,% survival from untreated cells: cells + drug,NCI-28H cells; gemcitabine 0.0026 μM,114.61%
same,Average absorbance reading: cells + drug,NCI-28H cells; gemcitabine 0.0026 μM,2.034
same,% survival from untreated cells: cells + drug,NCI-28H cells; gemcitabine 0.013 μM,107.85%
same,Average absorbance reading: cells + drug,NCI-28H cells; gemcitabine 0.013 μM,1.914
same,% survival from untreated cells: cells + drug,NCI-28H cells; gemcitabine 0.064 μM,80.60%
same,Average absorbance reading: cells + drug,NCI-28H cells; gemcitabine 0.064 μM,1.43
same,% survival from untreated cells: cells + drug,NCI-28H cells; gemcitabine 8 μM,56.58%
same,Average absorbance reading: cells + drug,NCI-28H cells; gemcitabine 8 μM,1.004
same,% survival from untreated cells: cells + drug,NCI-28H cells; gemcitabine 40 μM,60.09%
same,Average absorbance reading: cells + drug,NCI-28H cells; gemcitabine 40 μM,1.0663
same,% survival from untreated cells: cells + drug,NCI-28H cells; gemcitabine 200 μM,52.70%
same,Average absorbance reading: cells + drug,NCI-28H cells; gemcitabine 200 μM,0.9352
N.N.[Cl][Pt][Cl] [Cisplatin],"cytotoxicity to NCI-28H cells, comparison",NCI-28H cells,no noticeable difference in toxicity
same,Average reading: cells + cisplatin,"NCI-28H cells; 72 hrs, Cisplatin 20 μM",0.48
same,Average reading: cells + cisplatin,"NCI-28H cells; 72 hrs, Cisplatin 100 μM",0.59
